In US20260234144A1 (TAY THERAPEUTICS LIMITED, priority 2023, published 2026):

Test system: R223X stop codon in the mutated luciferase gene, ADXC8 luciferase reporter cell line
Experiment: cells
Assay type: cell-based
Conditions: 24 h, ADXC8 cells, 24 hours; for EC (100% of 200 uM G418 response): read-out: pC100%, negative logarithm of the concentration giving the same response as 200 μM G418; for Emax: read-out: Fold Over Control, maximum fold response relative to 200 μM G418

Row | SMILES | EC (100% of 200 uM G418 response) [µM] | Emax [%]
1 | Cc1cc(C2CC2)nc2nc(NC3CCN(C)CC3)nc(N)c12 [Example 601] | 1 to 10 | –
2 | Cc1cc(C(C)C)nc2nc(NC3CCN(C)CC3)nc(N)c12 [Example 602] | 1 to 10 | –
3 | CNc1nc(N[C@@H]2C[C@H](O)CN(C)C2)nc2nc(C)cc(C)c12 [Example 603] | 1 to 10 | 100 to 3000
4 | CNc1nc(N[C@@H]2C[C@@H](O)CN(C)C2)nc2nc(C)cc(C)c12 [Example 604] | 1 to 10 | 100 to 3000
5 | CNc1nc(NC2CCN(Cc3ccccc3)CC2)nc2nc3c(c(C)c12)CCC3 [Example 605] | 0.1 to 1 | 100 to 3000
6 | CNc1nc(N[C@H]2CNCC[C@H]2O)nc2nc(C)cc(C)c12 [Example 606] | 1 to 10 | –
7 | CNc1nc(N[C@H]2CN(C)CC[C@H]2O)nc2nc(C)cc(C)c12 [Example 607] | 1 to 10 | –
8 | CNc1nc(N[C@H]2CNCC[C@@H]2O)nc2nc(C)cc(C)c12 [Example 608] | 1 to 10 | –
9 | CNc1nc(N[C@H]2CN(C)CC[C@@H]2O)nc2nc(C)cc(C)c12 [Example 609] | 1 to 10 | –
10 | CNc1nc(N[C@H]2CNC[C@@H](O)C2)nc2nc(C)cc(C)c12 [Example 610] | 1 to 10 | –
11 | CNc1nc(N[C@H]2CNC[C@H](O)C2)nc2nc(C)cc(C)c12 [Example 611] | 0.1 to 1 | –
12 | CNc1nc(N[C@H]2CN(C3CC3)C[C@@H]2O)nc2nc(C)cc(C)c12 [Example 612] | 10 to 100 | 100 to 3000
13 | CNc1nc(N[C@H]2CN(C)C[C@H]2F)nc2nc(C)c(Br)c(C)c12 [Example 613] | 1 to 10 | –
14 | CNc1nc(N[C@H]2CN(C)C[C@H]2F)nc2nc(C)c(Cl)c(C)c12 [Example 614] | 1 to 10 | –
15 | CNc1nc(N[C@H]2CN(C)C[C@@H]2O)nc2nc(C)c(Br)c(C)c12 [Example 615] | 1 to 10 | –
16 | CNc1nc(N[C@@H]2CCN(C)C2)nc2nc(OC)cc(C)c12 [Example 616] | 1 to 10 | 100 to 3000
17 | CNc1cc(N[C@H]2CNC[C@H]2OC)nc2nc3c(c(C)c12)CCC3 [Example 617] | 1 to 10 | 100 to 3000
18 | CNc1cc(N[C@H]2CNC[C@H]2O)nc2nc3c(c(C)c12)CCC3 [Example 618] | 1 to 10 | –
19 | CNc1cc(N[C@H]2CN(C)C[C@H]2O)nc2nc3c(c(C)c12)CCC3 [Example 619] | 1 to 10 | 100 to 3000
20 | CNc1c(C)c(N[C@@H]2CCN(C)C2)nc2nc(C)cc(C)c12 [Example 620] | > 31.6 | 0 to 100
21 | CNc1nc(N[C@H]2CN(Cc3ccccc3)C[C@H]2F)nc2nc(C)cc(C)c12 [Example 621] | 10 to 100 | 100 to 3000
22 | CNc1nc(N[C@H]2CN(Cc3ccccc3)C[C@@H]2O)nc2nc(C)cc(C)c12 [Example 622] | 1 to 10 | 100 to 3000
23 | CNc1nc(N[C@H]2CNC[C@@H]2OC)nc2nc3c(c(C)c12)CCC3 [Example 623] | 0.1 to 1 | –

Row | SMILES | EC (100% of 200 uM G418 response) [µM] | Emax [%]
24 | CNc1nc(N[C@H]2CN(C3CCC3)C[C@@H]2O)nc2nc(C)cc(C)c12 [Example 624] | 1 to 10 | 100 to 3000
25 | CNc1nc(N[C@H]2CN(C(C)C)C[C@@H]2O)nc2nc(C)cc(C)c12 [Example 625] | 1 to 10 | 100 to 3000
26 | CCN1C[C@H](Nc2nc(NC)c3c(C)cc(C)nc3n2)[C@@H](O)C1 [Example 626] | 1 to 10 | 100 to 3000
27 | CNc1nc(N[C@H]2CN(C3CCC3)C[C@H]2F)nc2nc(C)cc(C)c12 [Example 627] | 10 to 100 | 100 to 3000
28 | CCN1C[C@@H](F)[C@@H](Nc2nc(NC)c3c(C)cc(C)nc3n2)C1 [Example 628] | 1 to 10 | –
29 | CNc1nc(N[C@H]2CN(C)C[C@@H]2O)nc2nc(C)c(Cl)c(C)c12 [Example 629] | 1 to 10 | –
30 | CNc1nc(N[C@@H]2CCN(C)C2)nc2nc(N(C)C)cc(C)c12 [Example 630] | 10 to 100 | 100 to 3000
31 | CNc1nc(N[C@@H]2CCN(C)C2)nc2nc(C)cc(OC)c12 [Example 631] | 1 to 10 | 100 to 3000
32 | CCNc1nc(N[C@]23C[C@H]2CN(C)C3)nc2nc(C)cc(C)c12 [Example 632] | 0.1 to 1 | 100 to 3000
33 | CNc1cc(N[C@H]2CNC[C@H]2F)nc2nc3c(c(C)c12)CCC3 [Example 633] | 1 to 10 | –
34 | CNc1cc(N[C@H]2CN(C)C[C@@H]2F)nc2nc3c(c(C)c12)CCC3 [Example 634] | 0.1 to 1 | 100 to 3000
35 | CNc1cc(N[C@H]2CNC[C@@H]2O)nc2nc3c(c(C)c12)CCC3 [Example 635] | 1 to 10 | –
36 | Cc1cc(C)c2c(NCC(F)F)nc(N[C@@H]3CCN(C)C3)nc2n1 [Example 636] | 1 to 10 | –
37 | CNc1nc(N[C@@]2(C)CCNC2)nc2nc(C)cc(C)c12 [Example 637] | > 31.6 | 0 to 100
38 | CNc1nc(N[C@@]2(C)CCN(C)C2)nc2nc(C)cc(C)c12 [Example 638] | > 31.6 | 0 to 100
39 | Cc1cc(C)c2c(N)nc(NC3CCN(Cc4ccccc4)CC3(F)F)nc2n1 (stereo not shown) [Example 639] | > 31.6 | 0 to 100
40 | Cc1cc(C)c2c(N)nc(NC3CC34CCNCC4)nc2n1 (stereo not shown) [Example 640] | > 31.6 | 0 to 100
41 | Cc1cc(C)c2c(N)nc(N[C@H]3CCNC[C@@H]3C)nc2n1 [Example 641] | 10 to 100 | 100 to 3000
42 | Cc1cc(C)c2c(N)nc(NCC(O)CN3CCCCC3)nc2n1 (stereo not shown) [Example 642] | 10 to 100 | 100 to 3000
43 | CN1CCC(Nc2nc(N)c3cc(-c4cncn4C)cnc3n2)CC1 [Example 643] | > 100 | 0 to 100
44 | CN1CCC(Nc2nc(N)c3cc(-c4cn(C)cn4)cnc3n2)CC1 [Example 644] | > 100 | 0 to 100
45 | CN1CCC(Nc2nc(N)c3cc(-c4ncco4)cnc3n2)CC1 [Example 645] | > 100 | 0 to 100
46 | CN1CCC(Nc2nc(N)c3cc(-c4ccn[nH]4)cnc3n2)CC1 [Example 646] | > 100 | 0 to 100

Row | SMILES | EC (100% of 200 uM G418 response) [µM] | Emax [%]
47 | CN1CCC(Nc2nc(N)c3cc(-c4cncs4)cnc3n2)CC1 [Example 647] | 10 to 100 | 100 to 3000
48 | CN1CCC(Nc2nc(N)c3cc(-c4ccn(C)n4)cnc3n2)CC1 [Example 648] | > 100 | 0 to 100
49 | Cc1c2c(nc3nc(NC4CCN(Cc5ccc(C#N)cc5F)CC4)nc(N)c13)CCC2 [Example 649] | 1 to 10 | 100 to 3000
50 | Cc1c2c(nc3nc(NC4CCN(Cc5cc(F)cc(F)c5O)CC4)nc(N)c13)CCC2 [Example 654] | 1 to 10 | 100 to 3000
51 | CNc1nc(N[C@@H]2CNC[C@@H]2O)nc2nc3c(c(C)c12)CCC3 [Example 657] | 1 to 10 | 100 to 3000
52 | CNc1nc(N[C@@H]2CN(C)C[C@@H]2O)nc2nc3c(c(C)c12)CCC3 [Example 658] | 1 to 10 | 100 to 3000
53 | Cc1cc(C)c2c(N)nc(NC3CCN(Cc4cccc5cn[nH]c45)CC3)nc2n1 [Example 659] | 0.1 to 1 | 100 to 3000
54 | Cc1cc(C)c2c(N)nc(NC3CCN(Cc4cccc5nc[nH]c45)CC3)nc2n1 [Example 660] | 1 to 10 | 100 to 3000
55 | Cc1c2c(nc3nc(NC4CCN(Cc5cn[nH]c5)CC4)nc(N)c13)CCC2 [Example 661] | 1 to 10 | 100 to 3000
56 | Cc1c2c(nc3nc(NC4CCN(Cc5ccn[nH]5)CC4)nc(N)c13)CCC2 [Example 662] | 1 to 10 | 100 to 3000
57 | Cc1c2c(nc3nc(NC4CCN(Cc5cnccc5O)CC4)nc(N)c13)CCC2 [Example 663] | 1 to 10 | 100 to 3000
58 | Cc1c2c(nc3nc(NC4CCN(Cc5cccnc5O)CC4)nc(N)c13)CCC2 [Example 664] | > 31.6 | 0 to 100
59 | Cc1c2c(nc3nc(NC4CCN(Cc5cccc(S(N)(=O)=O)c5)CC4)nc(N)c13)CCC2 [Example 665] | 1 to 10 | 100 to 3000
60 | CNS(=O)(=O)c1ccc(CN2CCC(Nc3nc(N)c4c(C)c5c(nc4n3)CCC5)CC2)cc1 [Example 666] | 1 to 10 | 100 to 3000
61 | Cc1c2c(nc3nc(NC4CCN(Cc5ccc(S(N)(=O)=O)cc5)CC4)nc(N)c13)CCC2 [Example 667] | 1 to 10 | 100 to 3000
62 | Cc1c2c(nc3nc(NC4CCN(Cc5ccc(B(O)O)cc5)CC4)nc(N)c13)CCC2 [Example 668] | 1 to 10 | 100 to 3000
63 | Cc1c2c(nc3nc(NC4CCN(Cc5cccc(B(O)O)c5)CC4)nc(N)c13)CCC2 [Example 669] | 1 to 10 | 100 to 3000
64 | Cc1c2c(nc3nc(NC4CCN(Cc5ccccc5B(O)O)CC4)nc(N)c13)CCC2 [Example 670] | 0.1 to 1 | 100 to 3000
65 | Cc1c2c(nc3nc(NC4CCN(Cc5ccccc5NS(C)(=O)=O)CC4)nc(N)c13)CCC2 [Example 671] | 1 to 10 | 100 to 3000
66 | Cc1c2c(nc3nc(NC4CCN(Cc5cccc6cc[nH]c56)CC4)nc(N)c13)CCC2 [Example 672] | 0.01 to 0.1 | 100 to 3000
67 | Cc1c2c(nc3nc(NC4CCN(Cc5ccc(C(=O)O)cc5)CC4)nc(N)c13)CCC2 [Example 673] | 1 to 10 | 100 to 3000
68 | Cc1c2c(nc3nc(NC4CCN(Cc5cccc(C(=O)O)c5)CC4)nc(N)c13)CCC2 [Example 674] | > 31.6 | 0 to 100
